Patent US12539292B2, “BRM targeting compounds and associated methods of use” (Arvinas Operations, Inc., priority 2018, dated 2026)

Biological target: T1, BRM (Homo sapiens, UniProt P51531)
T1 construct: In-Cell Western Screen of BRM Degradation in SW1573 Cells; endogenous in cells; host or cells: SW1573
Assay: In-cell Western screen of BRM degradation in SW1573 cells (Dmax and DC50)
Type: cell-based
Details: for Dmax: SW1573, % degraded, when tested at the top concentration of between 0.3 and 10 μM, read-out: BRM Dmax (%); for DC50: target protein degradation, read-out: BRM DC50
Outline: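 Adherent SW1573 cultures exposed to test compounds for 18-20 h were processed for in-cell Western after PFA fixation and detergent permeabilization. BRM degradation was reported as Dmax and DC50.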

T1 sequence (P51531 whole entry): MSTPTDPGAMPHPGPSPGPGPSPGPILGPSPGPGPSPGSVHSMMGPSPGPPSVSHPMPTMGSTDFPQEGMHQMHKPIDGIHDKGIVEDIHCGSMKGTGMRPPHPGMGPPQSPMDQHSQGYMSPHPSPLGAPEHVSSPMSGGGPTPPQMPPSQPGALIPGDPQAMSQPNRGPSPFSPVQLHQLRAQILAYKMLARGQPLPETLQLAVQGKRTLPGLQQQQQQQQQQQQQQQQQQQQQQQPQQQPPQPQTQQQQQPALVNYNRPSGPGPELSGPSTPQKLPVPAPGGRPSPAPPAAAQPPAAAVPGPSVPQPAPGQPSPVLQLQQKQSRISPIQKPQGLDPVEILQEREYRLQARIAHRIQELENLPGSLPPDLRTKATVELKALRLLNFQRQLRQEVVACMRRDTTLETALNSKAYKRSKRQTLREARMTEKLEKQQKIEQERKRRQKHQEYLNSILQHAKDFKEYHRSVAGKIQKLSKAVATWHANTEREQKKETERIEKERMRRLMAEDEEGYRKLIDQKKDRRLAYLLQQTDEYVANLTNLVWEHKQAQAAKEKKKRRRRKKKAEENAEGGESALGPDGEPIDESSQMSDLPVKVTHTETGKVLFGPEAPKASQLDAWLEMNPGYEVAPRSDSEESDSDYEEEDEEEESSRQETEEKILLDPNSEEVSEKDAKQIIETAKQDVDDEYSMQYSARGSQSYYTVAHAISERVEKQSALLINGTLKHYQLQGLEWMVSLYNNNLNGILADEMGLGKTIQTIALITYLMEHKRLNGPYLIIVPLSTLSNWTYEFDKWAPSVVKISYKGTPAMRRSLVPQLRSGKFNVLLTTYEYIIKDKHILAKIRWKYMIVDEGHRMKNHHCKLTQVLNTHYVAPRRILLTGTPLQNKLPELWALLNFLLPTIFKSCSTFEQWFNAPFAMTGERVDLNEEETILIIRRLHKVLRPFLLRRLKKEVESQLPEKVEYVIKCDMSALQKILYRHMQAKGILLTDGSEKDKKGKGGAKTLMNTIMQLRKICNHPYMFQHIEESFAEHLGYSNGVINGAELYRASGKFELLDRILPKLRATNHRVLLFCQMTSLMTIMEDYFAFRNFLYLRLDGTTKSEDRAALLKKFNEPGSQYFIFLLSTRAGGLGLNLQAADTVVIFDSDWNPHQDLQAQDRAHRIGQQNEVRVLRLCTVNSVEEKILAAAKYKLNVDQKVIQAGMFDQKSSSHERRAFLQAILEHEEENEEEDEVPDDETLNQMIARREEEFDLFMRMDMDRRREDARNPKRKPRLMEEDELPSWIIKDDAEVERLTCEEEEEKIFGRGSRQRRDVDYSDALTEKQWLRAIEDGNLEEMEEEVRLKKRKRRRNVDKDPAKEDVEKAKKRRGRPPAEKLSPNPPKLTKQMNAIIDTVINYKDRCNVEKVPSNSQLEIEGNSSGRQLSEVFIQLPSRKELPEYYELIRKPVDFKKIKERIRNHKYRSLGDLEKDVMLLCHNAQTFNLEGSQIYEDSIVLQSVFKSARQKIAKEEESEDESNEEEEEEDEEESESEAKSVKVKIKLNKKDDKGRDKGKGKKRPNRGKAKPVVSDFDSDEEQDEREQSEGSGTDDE

| SMILES | Dmax | DC50 |
| --- | --- | --- |
| Cc1ncn(C)c1-c1ccc([C@H](C)NC(=O)[C@@H]2C[C@@H](O)CN2C(=O)[C@@H](c2cc(OCCN3CCC(O[C@H]4C[C@H](Oc5cc(N6C7CCC6CN(c6cc(-c8ccccc8O)nnc6N)C7)ccn5)C4)CC3)no2)C(C)C)cc1 [compound 366, (2S,4R)-1-((2R)-2-(3-(2-(4-((1r,3R)-3-((4-(3-(3-amino-6-(2-hydroxyphenyl)pyridazin-4-yl)-3,8-diazabicyclo[3.2.1]octan-8-yl)pyridin-2-yl)oxy)cyclobutoxy)piperidin-1-yl)ethoxy)isoxazol-5-yl)-3-methylbutanoyl)-N-((S)-1-(4-(1,4-dimethyl-1H-imidazol-5-yl)phenyl)ethyl)-4-hydroxypyrrolidine-2-carboxamide] | > 75% | 0.0025 to 0.01 µM |
| Cc1ncsc1-c1ccc([C@H](C)NC(=O)[C@@H]2C[C@@H](O)CN2C(=O)[C@H](c2cc(OCCN3CCC(O[C@H]4C[C@H](Oc5cc(N6C7CCC6CN(c6cc(-c8ccccc8O)nnc6N)C7)ccn5)C4)CC3)no2)C(C)C)nc1 [compound 367, (2S,4R)-1-((2S)-2-(3-(2-(4-((1r,3S)-3-((4-(3-(3-amino-6-(2-hydroxyphenyl)pyridazin-4-yl)-3,8-diazabicyclo[3.2.1]octan-8-yl)pyridin-2-yl)oxy)cyclobutoxy)piperidin-1-yl)ethoxy)isoxazol-5-yl)-3-methylbutanoyl)-4-hydroxy-N-((S)-1-(5-(4-methylthiazol-5-yl)pyridin-2-yl)ethyl)pyrrolidine-2-carboxamide] | > 75% | > 0.03 µM |
| Cc1ncsc1-c1ccc([C@H](C)NC(=O)[C@@H]2C[C@@H](O)CN2C(=O)[C@@H](c2cc(OCCN3CCC(O[C@H]4C[C@H](Oc5cc(N6C7CCC6CN(c6cc(-c8ccccc8O)nnc6N)C7)ccn5)C4)CC3)no2)C(C)C)nc1 [compound 368, (2S,4R)-1-((2R)-2-(3-(2-(4-((1r,3R)-3-((4-(3-(3-amino-6-(2-hydroxyphenyl)pyridazin-4-yl)-3,8-diazabicyclo[3.2.1]octan-8-yl)pyridin-2-yl)oxy)cyclobutoxy)piperidin-1-yl)ethoxy)isoxazol-5-yl)-3-methylbutanoyl)-4-hydroxy-N-((S)-1-(5-(4-methylthiazol-5-yl)pyridin-2-yl)ethyl)pyrrolidine-2-carboxamide] | > 75% | < 0.0025 µM |
| Cc1ncsc1-c1ccc([C@H](C)NC(=O)[C@@H]2C[C@@H](O)CN2C(=O)[C@H](c2cc(OC3CN(CCN4CCC(O[C@H]5C[C@H](Oc6cc(N7C8CCC7CN(c7cc(-c9ccccc9O)nnc7N)C8)ccn6)C5)CC4)C3)no2)C(C)C)cc1 [compound 370, (2S,4R)-1-((2S)-2-(3-((1-(2-(4-((1r,3r)-3-((4-(3-(3-amino-6-(2-hydroxyphenyl)pyridazin-4-yl)-3,8-diazabicyclo[3.2.1]octan-8-yl)pyridin-2-yl)oxy)cyclobutoxy)piperidin-1-yl)ethyl)azetidin-3-yl)oxy)isoxazol-5-yl)-3-methylbutanoyl)-4-hydroxy-N-((S)-1-(4-(4-methylthiazol-5-yl)phenyl)ethyl)pyrrolidine-2-carboxamide] | > 75% | 0.01 to 0.03 µM |
| Cc1ncsc1-c1ccc([C@H](C)NC(=O)[C@@H]2C[C@@H](O)CN2C(=O)[C@@H](c2cc(OC3CN(CCN4CCC(O[C@H]5C[C@H](Oc6cc(N7C8CCC7CN(c7cc(-c9ccccc9O)nnc7N)C8)ccn6)C5)CC4)C3)no2)C(C)C)cc1 [compound 371, (2S,4R)-1-((2R)-2-(3-((1-(2-(4-((1r,3r)-3-((4-(3-(3-amino-6-(2-hydroxyphenyl)pyridazin-4-yl)-3,8-diazabicyclo[3.2.1]octan-8-yl)pyridin-2-yl)oxy)cyclobutoxy)piperidin-1-yl)ethyl)azetidin-3-yl)oxy)isoxazol-5-yl)-3-methylbutanoyl)-4-hydroxy-N-((S)-1-(4-(4-methylthiazol-5-yl)phenyl)ethyl)pyrrolidine-2-carboxamide] | > 75% | < 0.0025 µM |
